PubChem BioAssay (NCI)
Where “and” joins values, the source holds several entries; their conditions need not be identical. Equal values may be shown once.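 Results reflect a 48-hour exposure of cells in 96-well plates to compound at five concentrations. GI50: concentration for 50% inhibition of growth. TGI marks complete inhibition of growth.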

Legend:
Assay in all cases: inhibition of tumour cell growth, NCI panel, 48 h
786-0 renal = tested on: 786-0 renal
A549 NSCLC = tested on: A549 NSCLC
ACHN renal = tested on: ACHN renal
BT-549 breast = tested on: BT-549 breast
CAKI-1 renal = tested on: CAKI-1 renal
CCRF-CEM leukemia = tested on: CCRF-CEM leukemia
COLO 205 colon = tested on: COLO 205 colon
DU-145 prostate = tested on: DU-145 prostate
EKVX NSCLC = tested on: EKVX NSCLC
HCC-2998 colon = tested on: HCC-2998 colon
HCT-116 colon = tested on: HCT-116 colon
HCT-15 colon = tested on: HCT-15 colon
HL-60(TB) leukemia = tested on: HL-60(TB) leukemia
HOP-62 NSCLC = tested on: HOP-62 NSCLC
HOP-92 NSCLC = tested on: HOP-92 NSCLC
HS 578T breast = tested on: HS 578T breast
HT29 colon = tested on: HT29 colon
IGROV1 ovarian = tested on: IGROV1 ovarian
K-562 leukemia = tested on: K-562 leukemia
KM12 colon = tested on: KM12 colon
M14 melanoma = tested on: M14 melanoma
MALME-3M melanoma = tested on: MALME-3M melanoma
MCF7 breast = tested on: MCF7 breast
MDA-MB-231 breast = tested on: MDA-MB-231 breast
MDA-MB-435 = tested on: MDA-MB-435
MDA-N = tested on: MDA-N
MOLT-4 leukemia = tested on: MOLT-4 leukemia
NCI-H226 lung = tested on: NCI-H226 lung
NCI-H23 lung = tested on: NCI-H23 lung
NCI-H460 lung = tested on: NCI-H460 lung
NCI-H522 lung = tested on: NCI-H522 lung
NCI/ADR-RES ovarian = tested on: NCI/ADR-RES ovarian
OVCAR-3 ovarian = tested on: OVCAR-3 ovarian
OVCAR-4 ovarian = tested on: OVCAR-4 ovarian
OVCAR-5 ovarian = tested on: OVCAR-5 ovarian
OVCAR-8 ovarian = tested on: OVCAR-8 ovarian
PC-3 prostate = tested on: PC-3 prostate
RPMI-8226 leukemia = tested on: RPMI-8226 leukemia
RXF 393 renal = tested on: RXF 393 renal
SF-268 CNS = tested on: SF-268 CNS
SF-295 CNS = tested on: SF-295 CNS
SK-MEL-2 melanoma = tested on: SK-MEL-2 melanoma
SK-MEL-28 melanoma = tested on: SK-MEL-28 melanoma
SK-MEL-5 melanoma = tested on: SK-MEL-5 melanoma
SK-OV-3 ovarian = tested on: SK-OV-3 ovarian
SN12C renal = tested on: SN12C renal
SNB-19 CNS = tested on: SNB-19 CNS
SNB-75 CNS = tested on: SNB-75 CNS
SR leukemia = tested on: SR leukemia
SW-620 colon = tested on: SW-620 colon
T-47D breast = tested on: T-47D breast
TK-10 renal = tested on: TK-10 renal
U251 CNS = tested on: U251 CNS
UACC-257 melanoma = tested on: UACC-257 melanoma
UACC-62 melanoma = tested on: UACC-62 melanoma
UO-31 renal = tested on: UO-31 renal

Structure (SMILES): CN(C)CC1CCCCCCCCCCC1=O (stereo not drawn)
- GI50 (786-0 renal): > 100 µM
- TGI (786-0 renal): > 100 µM
- GI50 (A549 NSCLC): > 100 µM
- TGI (A549 NSCLC): > 100 µM
- GI50 (ACHN renal): > 100 µM
- TGI (ACHN renal): > 100 µM
- GI50 (BT-549 breast): > 100 µM
- TGI (BT-549 breast): > 100 µM
- GI50 (CAKI-1 renal): > 100 µM
- TGI (CAKI-1 renal): > 100 µM
- GI50 (CCRF-CEM leukemia): > 10 µM and 99.4 µM
- TGI (CCRF-CEM leukemia): > 100 µM
- GI50 (COLO 205 colon): > 100 µM
- TGI (COLO 205 colon): > 100 µM
- GI50 (DU-145 prostate): > 100 µM
- TGI (DU-145 prostate): > 100 µM
- GI50 (EKVX NSCLC): > 100 µM
- TGI (EKVX NSCLC): > 100 µM
- TGI (HCC-2998 colon): > 10 µM
- GI50 (HCT-116 colon): > 100 µM
- TGI (HCT-116 colon): > 100 µM
- GI50 (HCT-15 colon): > 100 µM
- TGI (HCT-15 colon): > 100 µM
- GI50 (HL-60(TB) leukemia): > 100 µM
- TGI (HL-60(TB) leukemia): > 100 µM
- GI50 (HOP-62 NSCLC): > 100 µM
- TGI (HOP-62 NSCLC): > 100 µM
- GI50 (HOP-92 NSCLC): > 100 µM
- TGI (HOP-92 NSCLC): > 100 µM
- TGI (HS 578T breast): > 100 µM
- GI50 (HT29 colon): > 10 µM and 98.4 µM
- TGI (HT29 colon): > 100 µM
- TGI (IGROV1 ovarian): > 100 µM
- GI50 (K-562 leukemia): > 100 µM
- TGI (K-562 leukemia): > 100 µM
- GI50 (KM12 colon): > 10 µM and 78.3 µM
- TGI (KM12 colon): > 100 µM
- GI50 (M14 melanoma): > 100 µM
- TGI (M14 melanoma): > 100 µM
- GI50 (MALME-3M melanoma): > 100 µM
- TGI (MALME-3M melanoma): > 100 µM
- GI50 (MCF7 breast): > 100 µM
- TGI (MCF7 breast): > 100 µM
- TGI (MDA-MB-231 breast): > 10 µM
- GI50 (MDA-MB-435): > 100 µM
- TGI (MDA-MB-435): > 100 µM
- GI50 (MDA-N): > 100 µM
- TGI (MDA-N): > 100 µM
- GI50 (MOLT-4 leukemia): > 100 µM
- TGI (MOLT-4 leukemia): > 100 µM
- GI50 (NCI-H226 lung): > 100 µM
- TGI (NCI-H226 lung): > 100 µM
- GI50 (NCI-H23 lung): > 100 µM
- TGI (NCI-H23 lung): > 100 µM
- GI50 (NCI-H460 lung): > 100 µM
- TGI (NCI-H460 lung): > 100 µM
- GI50 (NCI-H522 lung): > 100 µM
- TGI (NCI-H522 lung): > 100 µM
- GI50 (NCI/ADR-RES ovarian): > 100 µM
- TGI (NCI/ADR-RES ovarian): > 100 µM
- GI50 (OVCAR-3 ovarian): > 100 µM
- TGI (OVCAR-3 ovarian): > 100 µM
- GI50 (OVCAR-4 ovarian): > 100 µM
- TGI (OVCAR-4 ovarian): > 100 µM
- GI50 (OVCAR-5 ovarian): > 100 µM
- TGI (OVCAR-5 ovarian): > 100 µM
- TGI (OVCAR-8 ovarian): > 10 µM
- GI50 (PC-3 prostate): > 100 µM
- TGI (PC-3 prostate): > 100 µM
- TGI (RPMI-8226 leukemia): > 100 µM
- TGI (RXF 393 renal): > 10 µM
- GI50 (SF-268 CNS): > 100 µM
- TGI (SF-268 CNS): > 100 µM
- TGI (SF-295 CNS): > 10 µM
- GI50 (SK-MEL-2 melanoma): > 100 µM
- TGI (SK-MEL-2 melanoma): > 100 µM
- TGI (SK-MEL-28 melanoma): > 100 µM
- TGI (SK-MEL-5 melanoma): > 100 µM
- TGI (SK-OV-3 ovarian): > 100 µM
- GI50 (SN12C renal): > 100 µM
- TGI (SN12C renal): > 100 µM
- GI50 (SNB-19 CNS): > 100 µM
- TGI (SNB-19 CNS): > 100 µM
- TGI (SNB-75 CNS): > 100 µM
- GI50 (SR leukemia): > 100 µM
- TGI (SR leukemia): > 100 µM
- GI50 (SW-620 colon): > 100 µM
- TGI (SW-620 colon): > 100 µM
- GI50 (T-47D breast): > 100 µM
- TGI (T-47D breast): > 100 µM
- GI50 (TK-10 renal): > 100 µM
- TGI (TK-10 renal): > 100 µM
- GI50 (U251 CNS): > 100 µM
- TGI (U251 CNS): > 100 µM
- TGI (UACC-257 melanoma): > 10 µM
- TGI (UACC-62 melanoma): > 100 µM
- GI50 (UO-31 renal): > 100 µM
- TGI (UO-31 renal): > 100 µM
